Measured values: ChEMBL document CHEMBL1129938, “Synthesis and biological evaluation of nonclassical 2,4-diamino-5-methylpyrido[2,3-d]pyrimidines with novel side chain substituents as potential inhibitors of dihydrofolate reductases” (J Med Chem, 1997)

Tests used:
[1] = target: T1, Bifunctional dihydrofolate reductase-thymidylate synthase (Toxoplasma gondii, UniProt Q07422)
T1 sequence (Q07422 whole entry): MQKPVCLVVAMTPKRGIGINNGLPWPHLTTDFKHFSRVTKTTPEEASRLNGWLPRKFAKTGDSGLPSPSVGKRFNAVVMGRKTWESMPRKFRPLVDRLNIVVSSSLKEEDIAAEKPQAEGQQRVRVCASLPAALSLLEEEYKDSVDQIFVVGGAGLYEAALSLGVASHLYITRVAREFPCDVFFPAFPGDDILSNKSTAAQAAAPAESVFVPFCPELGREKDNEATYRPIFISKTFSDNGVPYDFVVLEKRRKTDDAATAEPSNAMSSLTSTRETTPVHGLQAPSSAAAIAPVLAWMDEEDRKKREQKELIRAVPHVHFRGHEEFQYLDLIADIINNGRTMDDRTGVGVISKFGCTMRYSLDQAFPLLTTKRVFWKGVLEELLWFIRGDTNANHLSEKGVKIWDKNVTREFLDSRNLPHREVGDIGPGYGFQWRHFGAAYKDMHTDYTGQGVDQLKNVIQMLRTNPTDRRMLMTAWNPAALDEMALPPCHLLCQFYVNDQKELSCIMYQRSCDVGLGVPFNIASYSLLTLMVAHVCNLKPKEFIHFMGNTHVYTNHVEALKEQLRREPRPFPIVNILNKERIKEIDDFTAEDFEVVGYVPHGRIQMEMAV
Description: Inhibition of Dihydrofolate Reductase of Toxoplasma gondii.

Dihydrofolate reductase [2] = target: T2, Dihydrofolate reductase (Pneumocystis carinii, UniProt P16184)
T2 sequence (P16184 whole entry): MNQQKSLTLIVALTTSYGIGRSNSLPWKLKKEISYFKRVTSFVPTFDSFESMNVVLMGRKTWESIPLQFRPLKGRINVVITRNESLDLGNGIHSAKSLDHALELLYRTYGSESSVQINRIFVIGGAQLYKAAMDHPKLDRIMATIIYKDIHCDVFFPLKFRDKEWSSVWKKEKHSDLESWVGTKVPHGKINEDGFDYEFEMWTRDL
Description: Inhibition of Dihydrofolate Reductase of Pneumocystis carinii.

Dihydrofolate reductase [3] = target: T3, Dihydrofolate reductase (Rattus norvegicus, UniProt Q920D2)
T3 sequence (Q920D2 whole entry): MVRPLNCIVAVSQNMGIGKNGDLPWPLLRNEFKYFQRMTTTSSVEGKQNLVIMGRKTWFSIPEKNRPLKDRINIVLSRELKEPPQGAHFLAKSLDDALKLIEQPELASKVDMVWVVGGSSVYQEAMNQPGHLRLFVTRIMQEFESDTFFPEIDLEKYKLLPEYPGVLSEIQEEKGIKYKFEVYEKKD
Description: Inhibition of Dihydrofolate Reductase of Rat Liver.

[4] = Partition coefficient (logP); format: physicochemical; conditions: octanol/water
[5] = Selectivity ratio of Toxoplasma gondii cell culture to the T. gondii (tg) Dihydrofolate Reductase; format: functional
CHO = test: Cell culture inhibition was assessed by measuring incorporation of [3H]uracil into Toxoplasma gondii cells (CHO cell line); format: functional, cell-based; conditions: Cricetulus griseus

Compound | IC50 [1] | IC50 (Dihydrofolate reductase [2]) | IC50 (Dihydrofolate reductase [3]) | logP [4] | Selectivity ratio [5] | IC50 (CHO)
Cc1c(C)c(-n2cccc2)c(C)c(C)c1NCc1cnc2nc(N)nc(N)c2c1C | 75 nM | 620 nM | 170 nM | – | – | –
COc1ccc2c(c1)CCN2Cc1cnc2nc(N)nc(N)c2c1C | 57 nM | 250 nM | 170 nM | – | – | –
COc1cc2c(cc1OC)CN(Cc1cnc3nc(N)nc(N)c3c1C)CC2 | 110 nM | 850 nM | 130 nM | – | – | –
COc1cc(NCc2cnc3nc(N)nc(N)c3c2C)c(-n2cccc2)cc1OC | 600 nM | – | 3500 nM | – | – | –
COc1ccc(-c2ccccc2)cc1NCc1cnc2nc(N)nc(N)c2c1C | 68 nM | – | 440 nM | 4.77 | – | –
COc1ccc2c(ccn2Cc2cnc3nc(N)nc(N)c3c2C)c1 | 77 nM | 570 nM | 470 nM | 3.07 | 13 | 1000 nM
COc1cccc2c1CCN2Cc1cnc2nc(N)nc(N)c2c1C | 48 nM | 290 nM | 150 nM | – | – | –
COc1cc2c(cc1OC)N(Cc1cnc3nc(N)nc(N)c3c1C)CC2 | 49 nM | 410 nM | 230 nM | 2.33 | 512 | 25100 nM
COc1cc(-n2cccc2)c(OC)cc1NCc1cnc2nc(N)nc(N)c2c1C | 33 nM | 350 nM | 230 nM | – | – | –
